Data on 1 compound can be found in US11180486B2, “Indolylkojyl methane analogues, process of preparation thereof and use as inhibitor of cancer cells invasion and metastasis” (Council of Scientific & Industrial Research, priority 2017, dated 2021).

For one test, the system named is TIMP-1. The test can be described thus: Immunoblotting, expression of TIMP-1. The following applies: MDA-MB-231 cells; dose dependent. The test is classed as cell-based, human. Here is the method: (§1) Immunoblotting. MDA-MB-231 and MCF7 cells (0.5×10^6) were plated in six well plates for overnight in a humidified CO2 incubator and then exposed to varying concentrations of 5 (50, 100 and 200 nM) for 24 h along with vehicle (dose dependent study) and 200 nM of 5 for various time points like; 0, 6, 12, 24 and 48 h (time dependent study). Cells were then harvested, washed with chilled PBS and lysed with lysis buffer (HEPES 1 mM, KCl 60 mM, NP-40 0.3%, EDTA 1 mM, DTT 1 mM, sodium orthovanadate 1 mM, PMSF 0.1 mM and cocktail protease inhibitor). The cell extractions were centrifuged at 12,000 rpm for 10 min at 4° C. Protein concentration was measured by the standard Bradford method. An equal amount (20 μg) of protein from each sample was subjected to SDS-PAGE, and proteins were transferred to PVDF membranes (PALL), blocked with 5% (w/v) non-fat milk in PBS containing 0.1% Tween-20, probed with relevant antibodies (1:1000 dilution) for 3 h at room temperature or overnight at 4° C., and subsequently washed and probed with species-specific secondary antibodies coupled to horseradish peroxidase. Immunoreactive proteins were detected by Enhanced Chemiluminescence Plus (Thermo) (Rah et al., 2012, PloS one, 7(9), p.e44039.).

Test [1] has as its system MCF7 cells. The test can be described thus: Cell scattering assay (bFGF stimulated). The test is classed as cell-based, human. To be noted: bFGF plus 200 nM, 48 h, vs bFGF alone. Here is the method: (§2) Cell Scattering Assay. The procedure was followed according to the previously described method (Amin et al., 2015, Mol. Carcinog). Briefly, MDA-MB-231 and MCF7 cells were trypsinized, seeded in 6 well plates at a density of 1000 cells/well and incubated for 5 days for the formation of small colonies. On the sixth day, exhausted media was replaced by fresh media and cells were stimulated with bFGF (20 ng/mL) along with 5 (200 nM) or doxorubicin for 48 h. Cells were then washed with PBS and photographs were taken under inverted microscope at 20× magnification.

The test system of test [2] is MDA-MB-231 cells. The test can be described thus: Cell scattering assay (bFGF stimulated). The test is classed as cell-based, human. The following applies: bFGF plus 200 nM, 48 h, vs bFGF alone. Here is the method:
as §2

The next test deals with Par-4. The test can be described thus: Immunoblotting, expression of Par-4. The class given is cell-based, human. Here is the method: as §1, with “An equal amount (20 μg) of protein from each sample was subjected to SDS-PAGE, and proteins were transferred to PVDF membranes (PALL), blocked with 5% (w/v) non-fat milk in PBS containing 0.1% Tween-20, probed with relevant antibodies (1:1000 dilution) for 3 h at room temperature or overnight at 4° C., and subsequently washed and probed with species-specific secondary antibodies coupled to horseradish peroxidase.” left out
Drug Potentiation Assay. […] The ability of 5 to enhance cell killing was expressed as potentiation index (PI), which was the ratio of the % inhibition of 5 alone at the given dose and the % inhibition in combination with doxorubicin. […]
For orientation: A western blot detects proteins with antibodies after separation by electrophoresis.

The subject of test [3] is MCF7 cells. The test can be described thus: Migration (wound closure) assay. To be noted: after 48 h of incubation. The class given is cell-based, human. Here is the method:
(§3) Migration Assay. The experiment was performed according to the pre-standardized procedure (Rah et al., 2012, PloS one, 7(9). p.e44039). MDA-MB-231 and MCF7 cells were plated in 6-well plates at a concentration of (1×10^6 cells/well) and allowed to form a confluent monolayer for 24 h. On the next day, the monolayer was scratched with a sterile pipette tip (20-200 μl) and washed with serum free medium to remove the detached cells. […] Wounded areas were progressively photographed under an inverted microscope with Nikon D3100 camera at 20× magnification. […]

Test [4] concerns MDA-MB-231 cells. The test can be described thus: Migration (wound closure) assay. The class given is cell-based, human. To be noted: after 48 h of incubation. Here is the method:
as §3

For test [5], the system named is MCF7 cells. The test can be described thus: Matrigel invasion assay. The class given is cell-based. To be noted: Homo sapiens, 200 nM, 24 h, vs vehicle. Here is the method:
(§4) Matrigel Invasion Assay. The effect of compound 5 on invasion capability of breast cancer cells was evaluated using BD Biocoat Tumor Invasion Assay System (BD Bioscience, Bedford, Mass.) according to the manufacturer's instruction. Briefly, MDA-MB-231 and MCF7 cells (1×10^6) cells were cultured in the presence of 200 nM of compound 5, along with doxorubicin and vehicle for 24 h in serum free media in the upper chambers/inserts, and the bottom wells were filled with chemo-attractant (complete media with 10% FBS). Cells were allowed to migrate at 37° C. and 5% CO2. After 24 h, the matrigel-coated polycarbonate filters were removed, the non-migrating cells were separated from the upper chamber with a cotton swab and the inserts were fixed with methanol and stained with 0.25% crystal violet solution. For each replicate (n=3), migration of the cells was quantified by counting the stained cells (cells per five random fields) under an inverted microscope (Amin et al., 2015, Mol. Carcinog).

Test [6] concerns MDA-MB-231 cells. The experiment in a line: Matrigel invasion assay. The class given is cell-based. To be noted: Homo sapiens, 200 nM, 24 h, vs vehicle. Here is the method:
as §4

On to `CCCCCCCC(c1oc(CO)cc(=O)c1O)c1c[nH]c2ccccc12` (stereo not drawn) [Compound 5, 2-{1-(1H-indol-3-yl)octyl}-3-hydroxy-6-(hydroxymethyl)-4H-pyran-4-one], for which, in the test on TIMP-1, the “expression of TIMP-1” value was “induced significantly”. Moreover, the cell scattering inhibited in the test on MCF7 cells [1] is 84.5%; with MDA-MB-231 cells [2], 80%. Also, the “increase in the expression of Par-4” value in the test with Par-4 (MDA-MB-231, 5 and doxorubicin in combination, 24 h, vs each alone, densitometry) turned out to be 5.8 fold. In addition, in the test with Par-4 (MDA-MB-231 cells, dose dependent), the “expression of Par-4” value is listed as “induced significantly”. Further, the suppressed migration in the test with MCF7 cells [3] is 55.4%; with MDA-MB-231 cells [4] it was 57.3%. Also, the inhibition (as a rule, the relative decrease from the control value, in per cent) at 0.2 µM in the test with MCF7 cells [5] stood at 79%; in the test on MDA-MB-231 cells [6], 67%.
